Measurements taken from US9718790B2, “Triazine derivative and pharmaceutical composition having an analgesic activity comprising the same” (SHIONOGI & CO., LTD., priority 2010, dated 2017).

biological target: human P2X3 receptor (Homo sapiens (Human), UniProt P56373); experiment: Evaluation of human P2X3 receptor inhibitory activity (Fluo-3 calcium fluorescence, FDSS 3000, ATP stimulation); format: cell-based; conditions: C6BU-1 cells stably expressing human P2X3 receptor;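 also: stimulus was 50 nM ATP with fluorescence followed for 3 min, and the response per well was peak post-ATP fluorescence divided by the reading at measurement start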
Sequence (P56373 whole entry): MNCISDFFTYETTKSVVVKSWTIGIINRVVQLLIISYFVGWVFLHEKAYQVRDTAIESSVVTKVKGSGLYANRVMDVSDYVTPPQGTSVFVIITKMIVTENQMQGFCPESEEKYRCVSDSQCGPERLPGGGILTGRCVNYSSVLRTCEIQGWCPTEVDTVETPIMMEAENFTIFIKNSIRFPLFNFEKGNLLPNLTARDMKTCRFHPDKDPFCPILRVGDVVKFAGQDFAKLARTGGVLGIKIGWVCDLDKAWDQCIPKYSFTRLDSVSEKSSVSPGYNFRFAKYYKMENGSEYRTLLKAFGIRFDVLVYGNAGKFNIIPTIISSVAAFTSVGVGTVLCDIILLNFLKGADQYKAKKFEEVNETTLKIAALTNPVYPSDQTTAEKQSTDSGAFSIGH

SMILES	IC50 [nM]
CNC(=O)CCn1c(=O)[nH]/c(=N\c2ccc(OCC3CC3)cc2)n(Cc2ccc(Cl)cc2)c1=O [Compound I-1912]	29
COC(=O)[C@@H](C)Cn1c(=O)[nH]/c(=N\c2ccc(OC(C)C)c(C)c2)n(Cc2ccccc2)c1=O [Compound I-0764]	254
C=Cc1cc(/N=c2\[nH]c(=O)n(CCC(=O)OCC)c(=O)n2Cc2ccc(C)cc2)ccc1OC(C)C [Compound I-1190]	5
Cc1cc(/N=c2\[nH]c(=O)n(C[C@H]3COC(C)(C)O3)c(=O)n2Cc2ccc(Cl)cc2)ccc1OC(C)C [Compound I-0709]	7
CC(C)Oc1ccc(/N=c2\[nH]c(OCC(N)=O)nc(=O)n2Cc2ccc(Cl)cc2)cc1F [Compound I-0587]	299
O=C(O)CCCn1c(=O)[nH]/c(=N\c2ccc(Oc3ccncc3)cc2)n(Cc2ccc(Cl)cc2)c1=O [Compound I-1259]	11
CCC(Cn1c(=O)[nH]/c(=N\c2ccc(OC(C)C)c(C)c2)n(Cc2ccc(Cl)cc2)c1=O)C(=O)OC(C)(C)C (centres unmarked) [Compound I-0701]	35
COc1cc(/N=c2\[nH]c(=O)n(CCC(=O)O)c(=O)n2Cc2ccc(C)cc2)ccc1CC(C)C [Compound I-1362]	54

same assay, conditions: C6BU-1 cells stably expressing human P2X3 receptor, Fluo-3 fluorescence, FDSS 3000

SMILES	IC50 [nM]
COC(=O)[C@@H](C)Cn1c(=O)[nH]/c(=N\c2ccc(C3CCCC3)cc2)n(Cc2ccc(C)cc2)c1=O [Compound I-1090]	135
Cc1ccc(Cn2c(=O)n(C[C@H](C)C(=O)O)c(=O)[nH]/c2=N\c2ccc(OCC(C)(C)C)cc2)cc1 [Compound I-1064]	257
CCn1c(=O)[nH]/c(=N\c2ccc(Oc3ccc(O)nc3)cc2)n(Cc2ccc(Cl)cc2)c1=O [Compound I-1848]	14
C[C@@H](C(=O)O)[C@H](C)n1c(=O)[nH]/c(=N\c2ccc3c(c2)OCC(=O)N3)n(Cc2ccc(Cl)cc2)c1=O [Compound I-1786]	621
C[C@H](Oc1ccc(/N=c2\[nH]c(=O)n(C[C@H](C)C(=O)O)c(=O)n2Cc2ccc(Cl)cc2)cc1)C(F)(F)F [Compound I-0933]	82

same assay, conditions: human P2X3 receptor, Test Example 1

SMILES	IC50 [nM]
CCn1c(=O)[nH]/c(=N\c2ccc(Oc3ncccc3C#N)cc2)n(Cc2ccc(Cl)cc2)c1=O [Compound I-2345]	20
CCn1c(=O)[nH]/c(=N\c2ccc(Oc3ccc(C(=O)O)nc3)cc2)n(Cc2ccc(Cl)cn2)c1=O [Compound I-2278]	136
CCn1c(=O)[nH]/c(=N\c2ccc(Oc3cccc(C#N)n3)cc2)n(Cc2ccc(F)cc2)c1=O [Compound I-2466]	16
CCCOc1ccc(/N=c2\[nH]c(=O)n([C@H](C)CC(=O)O)c(=O)n2Cc2ccc(C)cc2)cc1Cl [Compound I-0880]	49
CCC(=O)Nc1ccc(Oc2ccc(/N=c3\[nH]c(=O)n(CC)c(=O)n3Cc3ccc(Cl)cc3)cc2)cn1 [Compound I-2242]	< 4
Cn1cc(Oc2ccc(/N=c3\[nH]c(=O)n(CCC(=O)O)c(=O)n3Cc3ccc(Cl)cc3)cc2)ccc1=O [Compound I-1512]	13
CCn1c(=O)[nH]/c(=N\c2ccc(Oc3ccnc(C(=O)O)c3)cc2)n(Cc2ccc(F)cc2)c1=O [Compound I-2360]	11
Cc1ccc(Cn2c(=O)n(C)c(=O)[nH]/c2=N\c2ccc(Oc3ccc(C(=O)O)nn3)cc2)cc1 [Compound I-2382]	54
Cc1ccc(/N=c2\[nH]c(=O)n(C[C@H](C)C(=O)O)c(=O)n2Cc2ccc(Cl)cc2)cc1C(F)(F)F [Compound I-0843]	183
Cn1c(=O)[nH]/c(=N\c2ccc(Oc3cc(C(=O)O)ccn3)cc2)n(Cc2ccc(Cl)cc2)c1=O [Compound I-2391]	29
O=C(Cn1c(=O)[nH]/c(=N\c2ccc(Oc3ccon3)cc2)n(Cc2ccc(Cl)cc2)c1=O)NCCO [Compound I-2680]	12
CC[C@@H](C)n1c(=O)[nH]/c(=N\c2ccc(Oc3ccnc(C(=O)O)c3)cc2)n(Cc2ccc(Cl)cc2)c1=O [Compound I-2482]	11
COc1cc(/N=c2\[nH]c(=O)n(C)c(=O)n2Cc2ccc(Cl)cc2)ccc1Oc1cccc(C(=O)O)n1 [Compound I-2424]	20
